From BindingDB's records for PubMed 32898763 (n/a, 2020)

Key:
[1] = target: T1, Prostaglandin G/H synthase 2 (Homo sapiens, UniProt P35354); experiment: Inhibition of COX-2 (unknown origin)
T1 sequence (P35354 whole entry): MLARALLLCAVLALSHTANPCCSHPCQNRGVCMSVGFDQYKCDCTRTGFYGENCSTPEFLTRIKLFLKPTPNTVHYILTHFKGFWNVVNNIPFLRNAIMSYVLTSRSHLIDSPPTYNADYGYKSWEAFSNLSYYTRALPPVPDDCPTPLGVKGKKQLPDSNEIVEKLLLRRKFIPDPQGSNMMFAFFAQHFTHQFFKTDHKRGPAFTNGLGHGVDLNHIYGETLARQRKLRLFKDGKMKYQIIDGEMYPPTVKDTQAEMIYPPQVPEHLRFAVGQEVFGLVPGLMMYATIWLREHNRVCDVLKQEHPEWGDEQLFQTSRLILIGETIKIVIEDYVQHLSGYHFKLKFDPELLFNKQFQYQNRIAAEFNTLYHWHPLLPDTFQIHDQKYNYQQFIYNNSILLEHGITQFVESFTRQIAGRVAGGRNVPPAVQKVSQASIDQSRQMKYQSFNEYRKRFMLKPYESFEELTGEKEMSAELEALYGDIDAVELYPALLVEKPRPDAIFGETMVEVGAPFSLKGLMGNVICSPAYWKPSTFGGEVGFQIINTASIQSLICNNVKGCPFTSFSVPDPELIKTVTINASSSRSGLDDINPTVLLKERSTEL

[2] = target: Prostaglandin G/H synthase 1 (Homo sapiens, UniProt P23219); experiment: Inhibition of COX-1 (unknown origin)
Sequence of Prostaglandin G/H synthase 1 (P23219 whole entry): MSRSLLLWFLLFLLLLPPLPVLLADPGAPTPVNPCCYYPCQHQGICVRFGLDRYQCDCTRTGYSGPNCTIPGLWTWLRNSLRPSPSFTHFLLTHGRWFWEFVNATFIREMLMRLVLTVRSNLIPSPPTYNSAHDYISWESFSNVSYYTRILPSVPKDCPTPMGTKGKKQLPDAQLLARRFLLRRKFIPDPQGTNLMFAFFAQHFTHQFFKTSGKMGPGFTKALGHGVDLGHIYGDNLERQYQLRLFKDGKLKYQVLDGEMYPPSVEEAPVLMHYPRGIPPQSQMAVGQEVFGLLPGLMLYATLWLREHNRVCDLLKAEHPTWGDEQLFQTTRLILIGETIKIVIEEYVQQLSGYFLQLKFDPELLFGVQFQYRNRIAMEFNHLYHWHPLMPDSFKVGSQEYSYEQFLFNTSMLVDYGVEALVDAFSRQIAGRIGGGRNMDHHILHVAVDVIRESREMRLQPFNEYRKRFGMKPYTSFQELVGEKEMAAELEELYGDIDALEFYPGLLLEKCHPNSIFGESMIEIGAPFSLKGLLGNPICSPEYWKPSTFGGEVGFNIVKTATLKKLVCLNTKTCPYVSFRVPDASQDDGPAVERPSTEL

Row | SMILES | IC50 [1] | IC50 [2]
1 | CCC(=CCN1Cc2cc(Cl)cc3nc(S)n(c23)CC1C)CC (stereo unspecified) | 0.1 µM | 9.56 µM
2 | CC1Cn2c(S)nc3cc(Cl)cc(c32)CN1CC1CCC1 (stereo unspecified) | 0.1 µM | 9.56 µM
3 | CCC(=CCN1Cc2cc(C)cc3nc(O)n(c23)C[C@@H]1C)CC | 0.1 µM | 9.56 µM
